Test results published in PubChem BioAssay AID504381 (The Scripps Research Institute Molecular Screening Center, 2011).
Activity calls are given as the source filed them. The rule behind the calls is not given here.

Assays:
Experiment in all cases: radioligand displacement at receptors and transporters – biochemical, PDSP panel, Set 2, late-stage follow-up (AID 504381)
[1] = tested on: Serotonin receptor 5ht7; details: PDSP radioligand binding panel, at 10 µM, hits give high values
[2] = tested on: Serotonin receptor 5ht1b; details: PDSP radioligand binding panel, at 10 µM, hits give high values
[3] = tested on: Histamine receptor H3; details: PDSP radioligand binding panel, at 10 µM, hits give high values
[4] = biological target: D(1B) dopamine receptor (Homo sapiens) (UniProt P21918); details: PDSP radioligand binding panel, Dopamine receptor D5, at 10 µM, hits give high values
[5] = biological target: 5-hydroxytryptamine receptor 2B (Homo sapiens) (UniProt P41595); details: PDSP radioligand binding panel, Serotonin receptor 5ht2b, at 10 µM, hits give high values
[6] = tested on: Biogenic amine transporter SERT; details: PDSP radioligand binding panel, at 10 µM, hits give high values
[7] = tested on: Dopamine receptor D2; details: PDSP radioligand binding panel, at 10 µM, hits give high values
[8] = tested on: Serotonin receptor 5ht1d; details: PDSP radioligand binding panel, at 10 µM, hits give high values
[9] = tested on: Serotonin receptor 5ht3; details: PDSP radioligand binding panel, at 10 µM, hits give high values
[10] = tested on: Muscarinic receptor M4; details: PDSP radioligand binding panel, at 10 µM, hits give high values
[11] = tested on: Sigma receptor 1; details: PDSP radioligand binding panel, at 10 µM, hits give high values
[12] = biological target: Delta-type opioid receptor (Homo sapiens) (UniProt P41143); details: PDSP radioligand binding panel, Opioid receptor DOR, at 10 µM, hits give high values
[13] = biological target: D(3) dopamine receptor (Homo sapiens) (UniProt P35462); details: PDSP radioligand binding panel, Dopamine receptor D3, at 10 µM, hits give high values
[14] = tested on: Dopamine receptor D4; details: PDSP radioligand binding panel, at 10 µM, hits give high values
[15] = tested on: Serotonin receptor 5ht1e; details: PDSP radioligand binding panel, at 10 µM, hits give high values
[16] = tested on: Serotonin receptor 5ht2a; details: PDSP radioligand binding panel, at 10 µM, hits give high values
[17] = tested on: Histamine receptor H4; details: PDSP radioligand binding panel, at 10 µM, hits give high values
[18] = tested on: Biogenic amine transporter NET; details: PDSP radioligand binding panel, at 10 µM, hits give high values
[19] = biological target: Kappa-type opioid receptor (Homo sapiens) (UniProt P41145); details: PDSP radioligand binding panel, Opioid receptor KOR, at 10 µM, hits give high values
[20] = tested on: Adrenergic receptor Beta3; details: PDSP radioligand binding panel, at 10 µM, hits give high values
[21] = biological target: D(1A) dopamine receptor (Homo sapiens) (UniProt P21728); details: PDSP radioligand binding panel, Dopamine receptor D1, at 10 µM, hits give high values
[22] = tested on: Histamine receptor H1; details: PDSP radioligand binding panel, at 10 µM, hits give high values
[23] = biological target: Muscarinic acetylcholine receptor M1 (Homo sapiens) (UniProt P11229); details: PDSP radioligand binding panel, at 10 µM, hits give high values
[24] = tested on: Adrenergic receptor Alpha1A; details: PDSP radioligand binding panel, at 10 µM, hits give high values
[25] = tested on: Muscarinic receptor M5; details: PDSP radioligand binding panel, at 10 µM, hits give high values
[26] = biological target: Muscarinic acetylcholine receptor M2 (Homo sapiens) (UniProt P08172); details: PDSP radioligand binding panel, at 10 µM, hits give high values
[27] = tested on: Biogenic amine transporter DAT; details: PDSP radioligand binding panel, at 10 µM, hits give high values
[28] = tested on: Serotonin receptor 5ht6; details: PDSP radioligand binding panel, at 10 µM, hits give high values
[29] = tested on: Serotonin receptor 5ht1a; details: PDSP radioligand binding panel, at 10 µM, hits give high values
[30] = biological target: Beta-2 adrenergic receptor (Homo sapiens) (UniProt P07550); details: PDSP radioligand binding panel, Adrenergic receptor Beta2, at 10 µM, hits give high values
[31] = tested on: Opioid receptor MOR; details: PDSP radioligand binding panel, at 10 µM, hits give high values
[32] = tested on: Adrenergic receptor Alpha1B; details: PDSP radioligand binding panel, at 10 µM, hits give high values
[33] = tested on: Histamine receptor H2; details: PDSP radioligand binding panel, at 10 µM, hits give high values
[34] = tested on: Serotonin receptor 5ht5a; details: PDSP radioligand binding panel, at 10 µM, hits give high values
[35] = tested on: Adrenergic receptor Alpha1D; details: PDSP radioligand binding panel, at 10 µM, hits give high values
[36] = tested on: Adrenergic receptor Beta1; details: PDSP radioligand binding panel, at 10 µM, hits give high values
[37] = biological target: Muscarinic acetylcholine receptor M3 (Homo sapiens) (UniProt P20309); details: PDSP radioligand binding panel, at 10 µM, hits give high values
[38] = tested on: GABA receptor GABAa; details: PDSP radioligand binding panel, at 10 µM, hits give high values
[39] = tested on: Serotonin receptor 5ht2c; details: PDSP radioligand binding panel, at 10 µM, hits give high values

Chain of D(1B) dopamine receptor (Homo sapiens) (P21918 whole entry, looked up): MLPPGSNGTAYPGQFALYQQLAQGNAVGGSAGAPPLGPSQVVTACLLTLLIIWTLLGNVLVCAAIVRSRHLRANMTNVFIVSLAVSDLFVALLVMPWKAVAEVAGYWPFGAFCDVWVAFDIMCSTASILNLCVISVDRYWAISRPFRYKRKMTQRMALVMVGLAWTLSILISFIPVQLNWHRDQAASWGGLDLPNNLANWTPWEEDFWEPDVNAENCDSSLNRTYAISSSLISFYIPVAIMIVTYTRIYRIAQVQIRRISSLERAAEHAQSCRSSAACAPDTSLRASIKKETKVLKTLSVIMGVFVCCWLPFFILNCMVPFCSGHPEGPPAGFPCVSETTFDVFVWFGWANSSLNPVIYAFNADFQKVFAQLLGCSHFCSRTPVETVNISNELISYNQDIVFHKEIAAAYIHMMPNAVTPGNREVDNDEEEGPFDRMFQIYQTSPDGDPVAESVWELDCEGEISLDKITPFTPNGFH
Chain of D(3) dopamine receptor (Homo sapiens) (P35462 whole entry, looked up): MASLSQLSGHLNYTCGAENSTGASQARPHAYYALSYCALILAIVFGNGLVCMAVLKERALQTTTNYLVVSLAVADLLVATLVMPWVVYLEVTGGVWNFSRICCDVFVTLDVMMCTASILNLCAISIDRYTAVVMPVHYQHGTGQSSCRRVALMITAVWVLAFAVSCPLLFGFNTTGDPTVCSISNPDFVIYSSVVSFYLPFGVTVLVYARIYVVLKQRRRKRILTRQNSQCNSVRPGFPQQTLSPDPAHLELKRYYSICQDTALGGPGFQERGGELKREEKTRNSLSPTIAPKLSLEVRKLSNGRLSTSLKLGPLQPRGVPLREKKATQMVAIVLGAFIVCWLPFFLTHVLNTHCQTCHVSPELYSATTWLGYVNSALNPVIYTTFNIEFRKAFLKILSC
Chain of 5-hydroxytryptamine receptor 2B (Homo sapiens) (P41595 whole entry, looked up): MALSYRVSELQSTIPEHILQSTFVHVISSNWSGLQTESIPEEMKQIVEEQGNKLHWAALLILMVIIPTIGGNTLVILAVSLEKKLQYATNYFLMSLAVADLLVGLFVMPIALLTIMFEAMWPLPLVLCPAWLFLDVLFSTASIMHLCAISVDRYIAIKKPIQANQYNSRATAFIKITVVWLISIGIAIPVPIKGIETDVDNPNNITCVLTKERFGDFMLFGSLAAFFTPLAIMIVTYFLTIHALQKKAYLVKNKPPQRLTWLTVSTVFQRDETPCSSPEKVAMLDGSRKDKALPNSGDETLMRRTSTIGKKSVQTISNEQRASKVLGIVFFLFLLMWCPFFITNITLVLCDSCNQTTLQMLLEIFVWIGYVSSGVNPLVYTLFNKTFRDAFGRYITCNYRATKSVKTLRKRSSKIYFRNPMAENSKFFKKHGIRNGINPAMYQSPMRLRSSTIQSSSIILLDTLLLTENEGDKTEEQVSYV
Chain of Muscarinic acetylcholine receptor M3 (Homo sapiens) (P20309 whole entry, looked up): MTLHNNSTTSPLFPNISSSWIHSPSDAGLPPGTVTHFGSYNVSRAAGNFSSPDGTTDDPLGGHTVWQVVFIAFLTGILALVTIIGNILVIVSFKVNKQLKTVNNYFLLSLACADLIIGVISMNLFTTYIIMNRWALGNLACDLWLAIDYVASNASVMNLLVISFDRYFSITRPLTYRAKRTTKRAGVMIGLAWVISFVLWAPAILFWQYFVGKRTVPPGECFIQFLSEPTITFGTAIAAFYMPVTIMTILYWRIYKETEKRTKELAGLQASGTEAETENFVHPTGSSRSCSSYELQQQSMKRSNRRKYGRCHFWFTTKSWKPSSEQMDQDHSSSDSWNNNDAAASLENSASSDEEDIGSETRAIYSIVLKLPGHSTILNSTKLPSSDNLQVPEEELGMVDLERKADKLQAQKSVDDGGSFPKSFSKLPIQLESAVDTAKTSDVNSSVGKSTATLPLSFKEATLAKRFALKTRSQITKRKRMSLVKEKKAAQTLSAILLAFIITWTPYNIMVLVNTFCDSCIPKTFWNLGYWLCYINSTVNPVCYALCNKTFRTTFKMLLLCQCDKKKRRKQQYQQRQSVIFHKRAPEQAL
Chain of Delta-type opioid receptor (Homo sapiens) (P41143 whole entry, looked up): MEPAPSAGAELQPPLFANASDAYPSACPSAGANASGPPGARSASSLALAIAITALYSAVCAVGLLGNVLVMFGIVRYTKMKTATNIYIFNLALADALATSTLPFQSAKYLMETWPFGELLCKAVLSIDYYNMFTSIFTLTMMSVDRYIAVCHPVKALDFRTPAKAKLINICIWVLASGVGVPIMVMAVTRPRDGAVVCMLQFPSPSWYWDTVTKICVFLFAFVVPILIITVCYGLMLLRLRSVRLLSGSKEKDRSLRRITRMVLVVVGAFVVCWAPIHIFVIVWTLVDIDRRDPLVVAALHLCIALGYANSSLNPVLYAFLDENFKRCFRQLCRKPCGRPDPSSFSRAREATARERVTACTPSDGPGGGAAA
Chain of D(1A) dopamine receptor (Homo sapiens) (P21728 whole entry, looked up): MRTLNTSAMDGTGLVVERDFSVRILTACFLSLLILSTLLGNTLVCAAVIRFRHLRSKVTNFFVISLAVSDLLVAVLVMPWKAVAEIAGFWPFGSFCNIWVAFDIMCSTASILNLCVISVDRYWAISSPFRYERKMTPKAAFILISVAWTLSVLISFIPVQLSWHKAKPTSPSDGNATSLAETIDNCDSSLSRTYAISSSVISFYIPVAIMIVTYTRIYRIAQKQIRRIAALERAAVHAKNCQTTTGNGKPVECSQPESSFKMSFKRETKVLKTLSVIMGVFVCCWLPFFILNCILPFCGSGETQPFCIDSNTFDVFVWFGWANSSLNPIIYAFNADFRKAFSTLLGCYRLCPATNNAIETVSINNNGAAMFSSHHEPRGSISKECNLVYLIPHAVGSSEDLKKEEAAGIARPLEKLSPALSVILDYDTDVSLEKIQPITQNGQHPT
Chain of Muscarinic acetylcholine receptor M2 (Homo sapiens) (P08172 whole entry, looked up): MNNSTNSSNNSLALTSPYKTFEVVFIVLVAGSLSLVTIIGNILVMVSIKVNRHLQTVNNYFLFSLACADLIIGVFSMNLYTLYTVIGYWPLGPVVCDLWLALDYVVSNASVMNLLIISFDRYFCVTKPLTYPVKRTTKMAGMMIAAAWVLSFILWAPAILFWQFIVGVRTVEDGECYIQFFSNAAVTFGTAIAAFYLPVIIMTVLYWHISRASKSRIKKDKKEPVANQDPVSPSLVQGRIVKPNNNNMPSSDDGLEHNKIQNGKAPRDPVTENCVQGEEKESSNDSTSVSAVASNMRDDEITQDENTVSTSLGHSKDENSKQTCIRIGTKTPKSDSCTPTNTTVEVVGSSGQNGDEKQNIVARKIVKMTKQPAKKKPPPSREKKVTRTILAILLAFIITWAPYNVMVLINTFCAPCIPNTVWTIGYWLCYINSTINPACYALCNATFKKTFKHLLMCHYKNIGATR
Chain of Muscarinic acetylcholine receptor M1 (Homo sapiens) (P11229 whole entry, looked up): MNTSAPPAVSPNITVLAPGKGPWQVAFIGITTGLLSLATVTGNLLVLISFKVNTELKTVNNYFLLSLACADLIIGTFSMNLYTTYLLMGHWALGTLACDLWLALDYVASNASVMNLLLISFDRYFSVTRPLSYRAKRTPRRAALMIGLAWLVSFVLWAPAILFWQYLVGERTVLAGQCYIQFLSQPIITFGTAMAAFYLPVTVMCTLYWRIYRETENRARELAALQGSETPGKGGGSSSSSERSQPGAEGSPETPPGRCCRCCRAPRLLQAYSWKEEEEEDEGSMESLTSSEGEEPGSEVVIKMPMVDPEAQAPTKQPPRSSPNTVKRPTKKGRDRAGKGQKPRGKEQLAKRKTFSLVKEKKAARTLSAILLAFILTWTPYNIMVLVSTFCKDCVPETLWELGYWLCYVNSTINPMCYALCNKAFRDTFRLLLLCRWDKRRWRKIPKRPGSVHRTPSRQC
Chain of Kappa-type opioid receptor (Homo sapiens) (P41145 whole entry, looked up): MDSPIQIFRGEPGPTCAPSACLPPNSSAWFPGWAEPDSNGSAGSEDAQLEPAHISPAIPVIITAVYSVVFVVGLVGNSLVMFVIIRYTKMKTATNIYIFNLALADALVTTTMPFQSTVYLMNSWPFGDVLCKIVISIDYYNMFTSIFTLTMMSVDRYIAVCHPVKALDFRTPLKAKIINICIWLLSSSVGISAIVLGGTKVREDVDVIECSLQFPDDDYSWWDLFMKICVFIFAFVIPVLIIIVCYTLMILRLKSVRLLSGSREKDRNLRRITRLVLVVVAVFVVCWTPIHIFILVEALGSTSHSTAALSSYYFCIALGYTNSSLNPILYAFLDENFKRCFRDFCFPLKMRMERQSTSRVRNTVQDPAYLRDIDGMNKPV
Chain of Beta-2 adrenergic receptor (Homo sapiens) (P07550 whole entry, looked up): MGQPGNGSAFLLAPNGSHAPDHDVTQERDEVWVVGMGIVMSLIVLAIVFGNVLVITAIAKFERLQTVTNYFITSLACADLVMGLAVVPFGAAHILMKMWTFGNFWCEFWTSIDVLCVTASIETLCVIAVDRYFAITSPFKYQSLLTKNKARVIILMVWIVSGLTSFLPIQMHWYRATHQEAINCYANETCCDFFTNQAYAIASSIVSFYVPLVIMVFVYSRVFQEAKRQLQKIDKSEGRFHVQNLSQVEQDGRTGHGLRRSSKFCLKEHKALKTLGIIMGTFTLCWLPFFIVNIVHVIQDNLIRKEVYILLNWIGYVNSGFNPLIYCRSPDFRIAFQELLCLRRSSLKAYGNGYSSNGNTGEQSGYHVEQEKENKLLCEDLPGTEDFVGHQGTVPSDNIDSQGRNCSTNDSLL

With `CC(=O)c1ccc2c(c1)Nc1ccccc1S2` the inhibition [1] was -19% (inactive), the inhibition [2] was 5.8% (inactive) and the inhibition [3] was 4% (inactive). For the same compound, the inhibition [4] was 38.7% (inactive), the inhibition [5] was 78.9% and the inhibition [6] was 8.8% (inactive). For the same compound, the inhibition [7] was -1.5% (inactive), the inhibition [8] was 15.3% (inactive) and the inhibition [9] was 7.8% (inactive). For the same compound, the inhibition [10] was -9.4% (inactive), the inhibition [11] was 6.3% (inactive) and the inhibition [12] was 0.8% (inactive). For the same compound, the inhibition [13] was 97.3%, the inhibition [14] was 0.9% (inactive) and the inhibition [15] was -36.5% (inactive). For the same compound, the inhibition [16] was 0.5% (inactive), the inhibition [17] was -16% (inactive) and the inhibition [18] was 74.1% (inactive). The inhibition [19] was 102%, the inhibition [20] was -13.9% (inactive) and the inhibition [21] was 13.9% (inactive). The inhibition [22] was 35.7% (inactive), the inhibition [23] was -14.2% (inactive) and the inhibition [24] was -2.9% (inactive). For the same compound, the inhibition [25] was 10.5% (inactive), the inhibition [26] was -6.7% (inactive) and the inhibition [27] was 29.1% (inactive). For the same compound, the inhibition [28] was 3.5% (inactive), the inhibition [29] was 21.4% (inactive) and the inhibition [30] was 11.4% (inactive). The inhibition [31] was 16.6% (inactive), the inhibition [32] was 9% (inactive) and the inhibition [33] was 9.9% (inactive). For the same compound, the inhibition [34] was -7.7% (inactive), the inhibition [35] was 17.9% (inactive) and the inhibition [36] was 2.6% (inactive). For the same compound, the inhibition [37] was -0.4% (inactive), the inhibition [38] was 28.7% (inactive) and the inhibition [39] was 31.5% (inactive).
